What was measured:
CDK9/CyclinT1 = biological target: T1, CDK9/CyclinT1 (Homo sapiens, UniProt P50750); assay: Lance Ultra KinaSelect Assay, CDK9; format: biochemical; conditions: FIG. 2
T1 construct: purchased Invitrogen
Source text: (§1) The principle behind this enzymatic assay is based upon the phosphorylation of the Ulight-Peptide Substrat. It is detected by using a specific EU-labeled anti-phospho peptide antibody. […] Binding of an inhibitor to the kinase prevents phosphorylation of the Ulight-MBP Substrat, resulting in a loss of FRET.
as §1
This compound predilution was then serial diluted 1:3 over 8 steps in DMSO and briefly spun down. Each compound solution was now diluted 1:20 in Enzymatic Buffer (HEPES: 50 mM, pH: 7.5; MgCl2: 10 mM; EGTA: 1 mM; DTT: 2 mM; Tween-20: 0.01%), mixed thoroughly and spun down.

[1] = tested on: BrdNut mutated cell lines (HCC2429, TY-82, 690100, 143100); assay: Proliferation assay on Brd-4-Nut mutated versus wild type cell lines (FIG. 4); format: cell-based; conditions: mutated: HCC2429, TY-82, 690100, 143100, wild type: Hela, HCC366, H460, HCC1143, hPBMCs
Experimental: The proliferation results are presented as IC50 in μM. First, the anti-proliferative effect of CDK9 inhibitors is much more pronounced on BrdNut mutated cell lines (=sensitive cell lines).
Cell lines were maintained in RPMI 1640 cell culture medium+glutamine (PAN Biotech GmbH, Aidenbach, Germany; order no. P04-22100; P04-05500) supplemented with 10% fetal calf serum “Gold” (PAA Laboratories GmbH, Pasching, Austria; order no. A15-151) and grown in a humidified atmosphere at 37° C., 5% CO2. As a first step, an optimal cell density for each cell line was determined to guarantee linearity. For viability assays with compounds, cells were then seeded at a density of 200 to 1000 per well in 25 μl in 384-well plates (Greiner Bio-One, Frickenhausen, Germany; order no. 781080). After overnight incubation at 37° C./5% CO2, 25 nl or 75 nl compounds were added to each sample well by using BIOMEK FX^P Laboratory Automation Workstation (Beckman Coulter, USA). Wells with cells and 0.1% or 0.3% DMSO in culture medium were used as positive controls, wells with cells and 10 μM staurosporine (Selleck Chemicals, Huston, USA) in culture medium were used as negative controls. […] Luminescence was measured by Envision Plate Reader (Perkin Elmer, USA). […]

HCC2429 cells = assay: Proliferation / cell viability assay (Cell Titer Glo) on HCC2429; format: cell-based; conditions: FIG. 1; for IC50: 72 h incubation, ATP content by CTG; for effect on proliferation of HCC2429 cells, in words: dose response experiments
Experimental: Proliferation assays were performed as described below under materials and methods. […] (Cpd B1 and Ro-3306) were applied at concentrations between 30 and 0.0137 μM. After 72 h incubation with compounds ATP content/proliferation was determined employing CTG (Promega). Relative proliferation values (compared to vehicle control) were used to calculate IC50 values (Excel fit; algorithm #205). IC50s of the respective compound (Y-axis; logarithmic scale) on proliferation of various cell lines (X-axis) are depicted in black bars. White bars indicate that an IC50 could not be determined due to too low activity and therefore was higher than the highest applied concentration in the assays (30 μM). IC50s of compounds on CDK9 inhibitor sensitive cell line HCC2429 are presented in grey bars.
Cell lines were maintained in RPMI 1640 cell culture medium+glutamine (PAN Biotech GmbH, Aidenbach, Germany; order no. P04-22100; P04-05500) supplemented with 10% fetal calf serum “Gold” (PAA Laboratories GmbH, Pasching, Austria; order no. A15-151) and grown in a humidified atmosphere at 37° C., 5% CO2. As a first step, an optimal cell density for each cell line was determined to guarantee linearity. For viability assays with compounds, cells were then seeded at a density of 200 to 1000 per well in 25 μl in 384-well plates (Greiner Bio-One, Frickenhausen, Germany; order no. 781080). After overnight incubation at 37° C./5% CO2, 25 nl or 75 nl compounds were added to each sample well by using BIOMEK FX^P Laboratory Automation Workstation (Beckman Coulter, USA). Wells with cells and 0.1% or 0.3% DMSO in culture medium were used as positive controls, wells with cells and 10 μM staurosporine (Selleck Chemicals, Huston, USA) in culture medium were used as negative controls. Upon incubation with compounds for 72 h at 37° C./5% CO2 25 μl Cell Titer Glo reagent (Promega, Madison, USA, order no. G7573; 1:2 diluted with cell culture medium) was added to each well to determine cell viability. 384well-plates were placed for 2 min on an orbital microplate shaker and incubated for further 10 min at room temperature resulting in a stabilization of light signal. Luminescence was measured by Envision Plate Reader (Perkin Elmer, USA). IC50 values were calculated with the software Excel Fit (IDBS, Guildford, UK) from 3-fold dilution series comprising 8 concentrations in duplicates.

CDK9/CycT = biological target: T2, CDK9/CycT (Homo sapiens, UniProt P50750); assay: Radiometric protein kinase assay (33PanQinase Activity Assay), kinase selectivity; format: biochemical; conditions: 23 different kinases, 10 μM compound versus DMSO control; FIG. 3
T2 construct: purchased ProQinase
Experimental: A radiometric protein kinase assay (33PanQinase® Activity Assay) was used for measuring the kinase activity of protein kinases employing exemplary CDK9 inhibitors to be used in the present invention (see FIG. 3). […] Activities of other kinases are not inhibited.
A similar experimental procedure is performed when the resulting activity within ^33PanQinase® assay is done. In advance buffers are prepared but in this case the pipetting sequence is first ATP solution diluted with assay buffer, DMSO or compound solution. The reaction (1 h at 30° C.) is started by addition of a substrate-kinase mix. During the incubation the kinase phosphorylates the substrate (different for each kinase). Due to the fact that the ATP solution contains ^33P-labelled ATP the substrate proteins are labeled with ^33P. The reaction is stopped by addition of excess H3PO4. If the reaction is performed in plates binding substrate proteins, said plates are washed to reduce unspecific signals (mainly not used ATP). […] Therefore, the incorporated radioactivity is detected by scintillation counting. Data is evaluated, processed and analyzed as described for the LANCE assays. […]
The reaction cocktails were incubated at 30° C. for 60 minutes. […] Incorporation of 33Pi (counting of “cpm”) was determined with a microplate scintillation counter (Microbeta, Wallac).

T1 sequence (P50750 whole entry): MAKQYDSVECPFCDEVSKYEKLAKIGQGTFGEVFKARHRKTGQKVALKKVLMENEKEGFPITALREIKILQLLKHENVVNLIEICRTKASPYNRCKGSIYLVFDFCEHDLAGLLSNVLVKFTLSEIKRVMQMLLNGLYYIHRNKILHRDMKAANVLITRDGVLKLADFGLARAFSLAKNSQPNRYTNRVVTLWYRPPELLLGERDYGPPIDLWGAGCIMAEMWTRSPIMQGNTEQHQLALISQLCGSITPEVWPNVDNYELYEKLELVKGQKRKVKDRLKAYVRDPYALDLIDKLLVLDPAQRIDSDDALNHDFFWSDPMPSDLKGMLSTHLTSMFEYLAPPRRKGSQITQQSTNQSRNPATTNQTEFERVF
T1 sequence (O60563 whole entry partner): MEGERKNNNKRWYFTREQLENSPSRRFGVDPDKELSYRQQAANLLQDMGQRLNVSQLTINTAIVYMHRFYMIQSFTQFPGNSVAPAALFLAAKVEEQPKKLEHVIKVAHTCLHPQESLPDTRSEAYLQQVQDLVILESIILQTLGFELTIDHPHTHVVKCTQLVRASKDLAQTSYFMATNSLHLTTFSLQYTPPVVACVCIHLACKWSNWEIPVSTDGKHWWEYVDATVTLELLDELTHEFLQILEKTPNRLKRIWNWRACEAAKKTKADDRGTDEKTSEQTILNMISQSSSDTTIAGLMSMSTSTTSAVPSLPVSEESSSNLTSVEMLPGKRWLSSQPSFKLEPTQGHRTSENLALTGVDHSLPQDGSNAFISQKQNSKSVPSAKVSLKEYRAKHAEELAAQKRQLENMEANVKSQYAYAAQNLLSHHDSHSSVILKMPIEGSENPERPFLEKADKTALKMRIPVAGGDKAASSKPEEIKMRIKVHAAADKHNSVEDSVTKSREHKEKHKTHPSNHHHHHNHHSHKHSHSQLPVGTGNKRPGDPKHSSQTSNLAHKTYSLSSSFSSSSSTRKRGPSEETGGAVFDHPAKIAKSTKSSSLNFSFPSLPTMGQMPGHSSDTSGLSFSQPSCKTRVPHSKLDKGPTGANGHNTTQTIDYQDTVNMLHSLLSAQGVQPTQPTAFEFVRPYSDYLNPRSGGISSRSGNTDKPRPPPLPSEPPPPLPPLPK
T2 sequence (P50750 whole entry): as the sequence (P50750 whole entry) above
T2 sequence (O60563 whole entry partner): as the sequence (O60563 whole entry partner) above

Row | CDK9 inhibition potency, in words (CDK9/CyclinT1) | IC50 (HCC2429 cells; Homo sapiens, HCC2429) | residual kinase activities / kinase selectivity, in words (CDK9/CycT) | IC50 (HCC2429 cells) | SMILES | proliferation inhibition in mutated, sensitive cell lines compared with wild type cell lines, in words [1] | effect on proliferation of HCC2429 cells, in words (HCC2429 cells)
1 | relatively weak | – | – | – | COc1ccccc1-c1cc(Nc2cccc(CS(N)(=O)=O)c2)ncn1 [1073485-20-7P, 3-[[6-(2-methoxyphenyl)-4-pyrimidinyl]amino]-Benzenemethanesulfonamide] | much more potent in mutated, sensitive cell lines | –
2 | – | 151 nM | inhibits only CDK9 with high potency | – | COc1ccccc1-c1ncnc(Nc2cccc(CS(N)(=O)=O)c2)n1 [Cpd B1, 3-[(4-(2-Methoxyphenyl)-1,3,5-triazin-2-yl)amino]benzenemethanesulfonamide] | – | potently affected proliferation
3 | – | – | – | > 10000 nM | O=C1NC(=NCc2cccs2)S/C1=C\c1ccc2ncccc2c1 [Ro-3306] | – | did not show comparable effects

— patent publication US20140287454A1, “SUSCEPTIBILITY TO SELECTIVE CDK9 INHIBITORS” (MAX-PLANCK-GESELLSCHAFT ZUR FÖRDERUNG DER WISSENSCHAFTEN …, priority 2011, published 2014)
